From US8501689B2, “Growth factor-mimicking peptides and uses thereof” (Caragen Co., Ltd., priority 2008, dated 2013)
Where no end group is shown, it is not given here.

Assays:
Assay type in all cases: cell-based
[1] = tested on: HaCaT keratinocytes; assay: SRB colorimetric assay, growth of HaCaT keratinocytes; details: 10 ng/ml or 1,000 ng/ml, 72 hr, serum-free medium, absorbance at 590 nm, FIG. 3a
Procedure: (§1) In order to evaluate four peptides prepared in Preparation Examples 1-2 whether they have similar activities of growth factor-1, SRB (Sulforhodamine B; Sigma-Aldrich) colorimetric assay was carried out using HaCaT keratinocytes and NIH3T3 fibroblasts according to Rizzino et al. method (Rizzino, et al. Cancer Res., 48: 4266 (1988)).
(§2) HaCaT keratinocytes (The Korean Cell Line Bank) and NIH3T3 fibroblasts (The Korean Cell Line Bank) were cultured in 250 ml-flasks containing EMEM (Eagle's minimal essential media; Gibco, U.S.A.) supplemented with 10% FBS (fetal bovine serum). Cells cultured were treated with 0.25% trypsin solution to detach cells from the bottom of culture flasks and centrifuged to collect cell pellets. After cells were resuspended in EMEM not containing FBS, its aliquot (4×10^3 cells)was added to each well of 96-well plates and cultured under 7% CO2 for 24 hr at 37° C. After 24-hr culture, the medium was changed with a fresh medium not containing serum and cells were incubated with human aFGF (NIBSC, UK) or four peptides synthesized (10 ng/ml or 1,000 ng/ml) dissolved in water and 10% DMSO for 72 hr under the same conditions as described above. After removing supernatants, cells were washed once using PBS (phosphate buffered saline) and incubated with SRB solution. Cells were sufficiently washed with PBS and observed under a microscope to find cell viability. In addition, absorbance at 590 nm was measured to analyze cell proliferation.
FIG. 3a and FIG. 3b represent the analysis data for growth of keratinocytes and fibroblasts, respectively. FIG. 4 represents the growth pattern of keratinocytes and fibroblasts observed under microscope after 72 hr-treatment with peptides.

[2] = tested on: procollagen; assay: Procollagen ELISA in HaCaT keratinocytes; details: HaCaT incubated with peptides for 72 hr, FIG. 5a
Procedure: (§3) HaCaT keratinocytes cultured for 48 hr were incubated with the peptides of the present invention for 72 hr. The levels of procollagen and fibronectin, indicators to show the improvement in skin wrinkle, were examined. The quantification was performed using Procollagen ELISA kit (Takara, Japan) and Fibronectin ELISA kit (CHEMICON, USA).

[3] = tested on: NIH3T3 fibroblasts; assay: SRB colorimetric assay, growth of NIH3T3 fibroblasts; details: NIH3T3, 10 ng/ml or 1,000 ng/ml, 72 hr, serum-free medium, absorbance at 590 nm, FIG. 3b
Procedure: as §1
as §2, with “Cells were sufficiently washed with PBS and observed under a microscope to find cell viability.” left out, “proliferation. […]” for “proliferation.”

[4] = tested on: fibronectin; assay: Fibronectin ELISA in HaCaT keratinocytes; details: HaCaT incubated with peptides for 72 hr, FIG. 5b
Procedure: as §3

“DSHTQYCFHGT [compound 3, corresponds to amino acids 10-20 of TGF-α]” was tested, and the growth of keratinocytes [1] was “much better effects on growth of keratinocytes”.
“YISKKHAGKNWF [corresponds to amino acids 111-122 of aFGF]” was tested, and the “level of procollagen in keratinocytes” value [2] was “remarkably promote the production of procollagen” and the growth of fibroblasts [3] was “excellent effects on growth of fibroblasts”.
In the case of Ac-YKSKKGGWTH [peptide 1], the growth of keratinocytes [1] is reported as “much better effects on growth of keratinocytes”, the “level of fibronectin in keratinocytes” value [4] is reported as “strikingly facilitate the production of procollagen” and the growth of fibroblasts [3] is reported as “excellent effects on growth of fibroblasts”.
“GYVGVRCEAADLDA [compound 4, corresponds to amino acids 38-49 of TGF-α]” was tested, and the growth of keratinocytes [1] was “much better effects on growth of keratinocytes” and the “level of fibronectin in keratinocytes” value [4] was “strikingly facilitate the production of procollagen”.
